The source made the active and inactive calls.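 How the source made its calls: active means half-maximal concentration for changing protein binding to DNA, from the fitted dose curve, below 10 micromolar; inactive means the rest.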
Each molecule was assayed against Nuclear receptor subfamily 1 group D member 1 (Homo sapiens) (UniProt P20393) (assay: modulators of Rev-erb alpha DNA binding, dose response, biochemical, FITC-DNA, fluorescence polarization (AID 1259321)).
Nuclear receptor subfamily 1 group D member 1 (Homo sapiens), sequence (P20393 whole entry, looked up): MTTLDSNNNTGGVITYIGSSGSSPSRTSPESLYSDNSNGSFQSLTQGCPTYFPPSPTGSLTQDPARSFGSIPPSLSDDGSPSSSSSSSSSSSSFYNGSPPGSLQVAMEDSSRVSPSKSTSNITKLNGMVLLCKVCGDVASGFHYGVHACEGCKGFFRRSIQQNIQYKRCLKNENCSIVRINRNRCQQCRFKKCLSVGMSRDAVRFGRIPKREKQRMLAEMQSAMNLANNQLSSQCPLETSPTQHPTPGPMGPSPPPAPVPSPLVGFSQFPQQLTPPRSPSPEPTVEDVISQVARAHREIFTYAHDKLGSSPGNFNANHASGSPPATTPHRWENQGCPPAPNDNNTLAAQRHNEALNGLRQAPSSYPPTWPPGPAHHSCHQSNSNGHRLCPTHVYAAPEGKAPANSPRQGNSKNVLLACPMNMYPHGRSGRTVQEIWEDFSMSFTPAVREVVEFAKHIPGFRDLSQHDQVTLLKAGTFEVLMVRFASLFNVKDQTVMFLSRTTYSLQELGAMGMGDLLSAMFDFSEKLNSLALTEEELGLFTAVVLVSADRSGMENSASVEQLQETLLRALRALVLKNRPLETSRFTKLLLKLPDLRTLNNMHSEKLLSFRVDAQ

Row | Compound | IC50
1 | O=[N+]([O-])c1ccc(N(c2ccccc2)c2ccccc2)cc1 | 4.62 µM
2 | CN1CCS/C1=C/C=C1/SC(=S)N(Cc2ccccc2)C1=O | inactive
3 | Cc1cc(C)c2nc(SCC(=O)Nc3ccccc3N3CCOCC3)c(C#N)cc2c1 | 6.99 µM
4 | CN(C)c1ccc(N=Nc2ccccc2C(=O)OCC(=O)NCC2CCCCC2)cc1 | 7.85 µM
5 | O=C(CSc1nnnn1-c1ccc2c(c1)OCCO2)c1cccc2c1OCCO2 | 2.98 µM
6 | COc1ccc(C2=NN(C(=O)CSc3ncccn3)C(c3cccc(OC)c3OC)C2)cc1 (centres undefined) | 1.5 µM
7 | COc1ccc(Oc2c(Cl)cnn(CC(=O)C(c3ccccc3)c3ccccc3)c2=O)cc1 | 0.779 µM
8 | COc1ccc(C(C)=O)cc1CSc1nc2ccccc2c(=O)n1-c1ccccc1 | > 40 µM (inactive)
9 | c1cnc(SCC2CCCCC2)c(-c2nc3ccccc3[nH]2)c1 | 7.2 µM
10 | COc1cc(/C=C(\C#N)c2nc3ccccc3[nH]2)cc(OC)c1O | inactive
11 | Cc1cc(C)n2nc(-c3ccc(Cl)cc3)cc2n1 | 1.64 µM
12 | COc1ccc(NC(=O)NNC(=O)COc2ccc3cc(Br)ccc3c2)cc1OC | 8.29 µM
13 | O=C(Cn1c(=S)[nH]c2ccccc2c1=O)NCCc1ccccc1 | 8.97 µM
14 | CC(=O)Oc1ccc(/C=N\NC(=O)c2cc3c(ccc4ccccc43)o2)cc1 | inactive
15 | CCOc1ccc(NC(=O)CSc2ncnc3c2sc2ccccc23)cc1 | 6.32 µM
16 | COc1ccc2c(C)cc(SCC(=O)Nc3ncc(Cl)cc3Cl)nc2c1 | 7.03 µM
17 | COC(=O)c1cc(-c2cc3ccccc3s2)c(=O)n2c1CCC2 | 7.41 µM
18 | Cc1ccc(S(=O)(=O)c2nc(Nc3ccccc3C#N)sc2Cl)cc1 | inactive
19 | COc1cccc(-c2nc(CS(=O)(=O)CC(=O)NCCCc3ccccc3)c(C)o2)c1 | 7.77 µM
20 | COc1cc2cc(C#N)c(SCC(=O)Nc3cc(C)on3)nc2cc1OC | inactive
21 | CC(C)(C)c1ccc(C(=O)c2c[nH]c(C(=O)NCc3cccs3)c2)cc1 | 3.88 µM
22 | Cc1cccc(N2C(=O)c3cccc4c(N)ccc(c34)C2=O)c1 | 6.19 µM
23 | Cc1ccc(S(=O)(=O)c2c[nH]c3ccc(Cl)cc3c2=O)cc1 | > 40 µM (inactive)
24 | COCCn1c(=NC(=O)c2ccco2)sc2cc(C(=O)OC)ccc21 | 4.87 µM
25 | COc1ccc(C(=O)/C(C#N)=N/Nc2ccc([N+](=O)[O-])cc2)cc1 | > 40 µM (inactive)
26 | Cc1ccc(S(=O)(=O)c2nnn3c2nc(N2CCN(c4ccccn4)CC2)c2ccccc23)cc1 | 0.876 µM

Row | Compound | IC50
27 | N#Cc1c(-c2ccc(F)cc2)cc(C2CC2)nc1SCC(=O)c1cccs1 | > 40 µM (inactive)
28 | Cc1cc(NC(=O)CSc2nc3c(C)ccc(C)c3cc2C#N)no1 | 3.19 µM
29 | CCOC(=O)c1cc(C(=O)OCC)c2cc(Br)ccc2n1 | inactive
30 | Cc1c(C(=O)Nc2ccncc2)sc2nc(-c3ccc(F)cc3)cn12 | 3.76 µM
31 | Cc1c(-c2ccc(Cl)cc2)oc(=O)c2c(N)n(-c3ccccc3)nc12 | 3.98 µM
32 | Cc1ccc2cc(C#N)c(SCC(=O)N3CCCc4ccccc43)nc2c1 | 6.5 µM
33 | Fc1cccc2sc(Nc3nc4c(F)cccc4s3)nc12 | 4.6 µM
34 | CCN1/C(=C/c2ccc3cc(C)ccc3[n+]2CC)Sc2cc(C)ccc21 | > 40 µM (inactive)
35 | CCOc1cc(N(CC)CC)ccc1/C=C(/C#N)c1nc2ccccc2[nH]1 | inactive
36 | CCOc1ccc(NC(=O)CSc2nc(C3CC3)nc3ccccc23)cc1 | 5.32 µM
37 | Cc1nonc1NC(=O)CSc1nc2ccccc2cc1C#N | inactive
38 | CCOc1ccccc1NC(=O)CSc1nc(N)c(C#N)cc1C#N | inactive
39 | COc1ccccc1CNc1ncnc2cc(Cl)ccc12 | 2.42 µM
40 | Cc1cc(C)c(N=C2SCC(=O)N2Cc2ccco2)c(C)c1 | 7.22 µM
41 | O=C1c2c(Br)c(Br)c(Br)c(Br)c2C(=O)N1c1ccccn1 | 8.24 µM
42 | O=S(=O)(N1CCCCC1)N1CCN(CC(O)COc2ccc3cc(Br)ccc3c2)CC1 (centres undefined) | > 40 µM (inactive)
43 | CCOCCCn1c(=S)[nH]c2cc(C(=O)NCCc3ccccc3)ccc2c1=O | 3.56 µM
44 | COc1ccc(C(=O)Nc2ccccc2-c2nnn(CC(N)=O)n2)cc1 | inactive
45 | COc1ccccc1-c1ccc2c(c1)C(C)(Cc1ccccc1C#N)C(=O)N2 (centres undefined) | 7.13 µM
46 | CCc1ccc(-c2cc(C(F)(F)F)n3nc(C(=O)Nc4c(C)nn(Cc5ccccc5Cl)c4C)cc3n2)s1 | inactive
47 | O=[N+]([O-])c1ccc(N2CCCC2)c2ccncc12 | > 40 µM (inactive)
48 | COc1ccc(NC(=O)CSc2nc(-c3ccc(C)cc3)cc(C(F)(F)F)c2C#N)cc1 | 0.675 µM
49 | CC(=O)c1ccc(S(=O)(=O)N2CCN(c3nc4c(C)c(C)ccc4cc3C#N)CC2)cc1 | 4.57 µM
50 | N#Cc1cccc(Cn2ccc3ccc(-c4ccc5ccn(Cc6cccc(C#N)c6)c5c4)cc32)c1 | 0.544 µM
51 | Cc1nn(C)c(C)c1NC(=O)CSc1nc(-c2ccccc2F)nc2c1cnn2-c1ccccc1 | 3.21 µM
52 | O=S(=O)(c1ccc2nc(N3CCN(c4ccccc4F)CC3)ccc2c1)N1CCCCC1 | 0.838 µM

Row | Compound | IC50
53 | O=C(CSc1nnc2scc(-c3ccccc3)n12)Nc1nsc(-c2ccccc2)n1 | > 40 µM (inactive)
54 | Cc1cc(NC(=O)CSc2nc3c(C)cccc3cc2C#N)no1 | > 40 µM (inactive)
55 | CCOc1ccc(NC(=O)CNC(=O)c2nn(-c3ccc(OC)c(OC)c3)c(=O)c3ccccc23)cc1 | 7.23 µM
56 | CCc1nnc(NS(=O)(=O)c2ccc(Nc3ccc([N+](=O)[O-])c4nonc34)cc2)s1 | 9.46 µM
57 | CCNC(=O)C[C@H]1CC[C@H]2[C@@H](COc3ccc(NC(=O)c4ccc5c(c4)OCO5)cc3C(=O)N2C)O1 | inactive
58 | COc1ccc(CCn2c(O)c(C=Nc3ccc(F)cc3)c(=O)[nH]c2=O)cc1OC | inactive
59 | CC1=NCCN1S(=O)(=O)c1c(C(C)C)cc(C(C)C)cc1C(C)C | > 40 µM (inactive)
60 | C=CCn1cc(/C=C/c2cc[n+](C)cc2)c2ccccc21 | > 40 µM (inactive)
61 | Cc1ccc(C)c(Nc2nc3c(S(=O)(=O)c4ccccc4)nnn3c3ccccc23)c1 | 8.48 µM
62 | O=C(OCC(=O)N1CCN(S(=O)(=O)c2ccc(Cl)cc2)CC1)c1cc(Br)ccc1O | 2.22 µM
63 | CCCCCCNC(=O)C(C#N)c1nc2ccccc2nc1N1CCOCC1 (centres undefined) | > 40 µM (inactive)
64 | COC(=O)c1ccc(NC(=O)c2cn(-c3ccccc3)nc2-c2ccncc2)cc1 | > 40 µM (inactive)
65 | CCc1nnc(NC(=O)CSc2nc3cc4c(cc3cc2CC)OCCO4)s1 | 3.66 µM
66 | COc1ccc(C(=O)Nc2scc(-c3ccc(Cl)cc3Cl)c2C(N)=O)cc1 | inactive
67 | CCC(=O)N=c1sc2c(OC)ccc(OC)c2n1C | 2.98 µM
68 | CCC(C)NC(=O)Cc1c(OC)ccc2cc(Br)ccc12 (centres undefined) | 8.21 µM
69 | CC(=O)c1cc2c(cc1N/C(=N/S(=O)(=O)c1ccc(C)cc1)c1ccc(Cl)cc1)OCO2 | > 40 µM (inactive)
70 | N#CC(C#N)=C1C=C2C=C(N3CCOCC3)CCC2CC1 (centres undefined) | 4.31 µM
71 | COc1ccc2cc(C3CC(c4cccs4)=NN3C(C)=O)c(Cl)nc2c1 (centres undefined) | 2.88 µM
72 | O=S(=O)([N-]c1nc2ccccc2nc1-n1cc[n+](Cc2ccccc2)c1)c1ccc(Br)cc1 | 1.06 µM
73 | COc1ccccc1NC(=O)c1sc2ncn(Cc3cccc4ccccc34)c(=O)c2c1C | 2.38 µM
74 | COc1ccc(NC(=O)c2sc3nc(N4CCCC4)c4c(c3c2N)CC(C)(C)OC4)cc1 | > 40 µM (inactive)
75 | Cn1c2ccccc2n2c(=O)c(Cl)c(-c3ccccc3)c(C#N)c12 | 3.4 µM
76 | CCC(C)OC(=O)c1cc(C)nc2c(Br)cc(Br)cc12 (centres undefined) | 7.65 µM
77 | CCCCCc1nc2c(c(=O)c3ccccc3n2C)c(=O)n1Cc1ccc(OC)cc1 | 2.96 µM
78 | CC(=O)Oc1ccc2oc(/C=C/N(C)C)c([N+](=O)[O-])c2c1 | 3.91 µM

Row | Compound | IC50
79 | COc1ccc2[nH]c(C(=O)Nc3ccc(C)c(F)c3)cc2c1 | 0.647 µM
80 | O=C(COC(=O)c1sc2cc(F)ccc2c1Cl)Nc1ncc(Cl)cc1Cl | > 40 µM (inactive)
81 | Oc1ccccc1-c1nc(N2CCCC2)c2ccccc2n1 | 2.1 µM
82 | Cc1ccc(Cl)cc1N1CCN(S(=O)(=O)c2ccc(-c3ccc(=O)[nH]n3)o2)CC1 | inactive
83 | COc1cc2oc(=O)cc(-c3ccc(-c4ccc(CO)cc4)cc3)c2c(OC)c1OC | 5.84 µM
84 | Cc1nc(SCc2nc3c(F)cccc3[nH]2)c2oc3ccccc3c2n1 | > 40 µM (inactive)
85 | Fc1ccc2nc(Nc3nc4cc5c(cc4s3)OCCO5)sc2c1 | 6.87 µM
86 | Cc1ccc(-n2c(N)c(C#N)c(-c3ccc(Cl)cc3)c(C#N)c2=O)cc1 | 4.59 µM
87 | CCCCn1c(SC(C)C(=O)NCC2CCCO2)nc2cc(C(=O)OC)ccc2c1=O (centres undefined) | > 40 µM (inactive)
88 | COc1ccc(C(=O)NNC(=O)C(Cc2ccc(O)cc2)NC(=O)c2ccccc2NC(=O)c2ccc(OC)cc2)cc1 (centres undefined) | inactive
89 | CCOc1cccc2sc(NC(=O)c3ccc(Br)s3)nc12 | > 40 µM (inactive)
90 | N#Cc1cnc2cc(-c3ccccc3)nn2c1N | 3.52 µM
91 | CC(=O)c1ccccc1NC(=O)c1cc(S(=O)(=O)N2CCOCC2)ccc1N1CCCC1 | 4.33 µM
92 | N=C1C(c2nc3ccccc3s2)=C(O)CN1NC(=O)c1c[nH]c2ccccc12 | 4.45 µM
93 | Cc1cccc2cc(C#N)c(SCC(=O)NCc3cccs3)nc12 | 9.79 µM
94 | Cc1cc(=O)oc2cc(OCC3CC(c4ccc(Cl)cc4)=NO3)ccc12 (centres undefined) | 8.95 µM
95 | O=C(Nc1ccc2oc(-c3cccc(F)c3)nc2c1)c1ccccc1F | 2.87 µM
96 | O=C(COC(=O)c1cccnc1SCC(=O)NCc1ccccc1)NCc1ccccc1 | 4.11 µM
97 | O=C1/C(=C\c2cc(Cl)c(O)c(Cl)c2)SC(=S)N1Cc1ccccc1 | > 40 µM (inactive)
98 | COC(=O)c1ccccc1-c1c2ccc(=N)cc-2oc2cc(N)ccc12 | > 40 µM (inactive)
99 | CCN(c1cccc(C)c1)S(=O)(=O)c1cc2c3c(c1)CCC(=O)N3CCC2 | inactive
100 | Cc1cc2c(s1)c1cnn(Cc3c(Cl)ccc(C)c3F)c(=O)c1n2C | inactive
101 | Cc1ccc(/C=C/c2ccc(N(C)C)cc2)[n+](C)c1 | 9.09 µM
102 | CC1=NN(c2ccccc2)C(=O)/C1=C\C=C1/N(C)c2ccccc2C1(C)C | > 40 µM (inactive)
103 | CSc1ccc(SC2CN(Cc3ccc(C)cc3)S(=O)(=O)C2)cc1 (centres undefined) | inactive
104 | C=CCn1c(SCCNC(C)=O)nc2cc(-c3ccccc3)sc2c1=O | inactive

Source: PubChem BioAssay AID1259321 (Sanford-Burnham Center for Chemical Genomics, 2017)
